These results are taken from patent US20150328292A1, “CASPASE POLYPEPTIDES HAVING MODIFIED ACTIVITY AND USES THEREOF” (BELLICUM PHARMACEUTICALS, INC., priority 2014, published 2015).

“And” between values parts separate entries of the source, which are not always exact repeats. Equal values may be shown once. Bounds are passed on as bounds.

One series has as its system iCasp9-transduced MSCs. Put plainly: Apoptosis of undifferentiated iCasp9-transduced MSCs after CID (annexin V/7-AAD FACS). The series is classed as cell-based, human. The protocol:
Undifferentiated MSCs. The chemical inducer of dimerization (CID) (AP20187; ARIAD Pharmaceuticals, Cambridge, Mass.) was added at 50 nM to iCasp9-transduced MSCs cultures in complete medium. Apoptosis was evaluated 24 hours later by FACS analysis, after cell harvest and staining with annexin V-PE and 7-AAD in annexin V binding buffer (BD Biosciences, San Diego, Calif.). Control iCasp9-transduced MSCs were maintained in culture without exposure to CID.

Series [1] concerns differentiated iCasp9-positive MSCs. Put plainly: Apoptosis of differentiated iCasp9-transduced MSCs after CID (TUNEL, cell density). It counts as cell-based, human. To be noted: adipocytic differentiation, 50 nM CID, after 24 hours (from 584). Here is the method:
Differentiated MSCs. Transduced MSCs were differentiated as presented above. At the end of the differentiation period, CID was added to the differentiation media at 50 nM. Cells were stained appropriately for the tissue being studied, as presented above, and a contrast stain (methylene azur or methylene blue) was used to evaluate the nuclear and cytoplasmic morphology. In parallel, tissues were processed for terminal deoxynucleotidyl-transferase dUTP nick end labeling (TUNEL) assay as per manufacturer instructions (In Situ Cell Death Detection Kit, Roche Diagnostics, Mannheim, Germany). For each time point, four random fields were photographed at a final magnification of 40× and the images were analyzed with ImageJ software version 1.43o (NIH, Bethesda, Md.). Cell density was calculated as the number of nuclei (DAPI positivity) per unit of surface area (in mm^2). The percentage of apoptotic cells was determined as the ratio of the number of nuclei with positive TUNEL signal (FITC positivity) to the total number of nuclei. Controls were maintained in culture without CID.

Series [2] relates to F-Casp9M.I.GFPhigh-transduced T cells. Description: annexin-V/7-AAD staining of CID-treated transduced CTLs. To be noted: GFPhigh-selected, overnight 10 nM CID. It counts as cell-based, human. Here is the method: CID (AP20187; ARIAD Pharmaceuticals) at indicated concentrations was added to transfected 293T cells or transduced CTLs. Adherent and nonadherent cells were harvested and washed with annexin binding buffer (BD Pharmingen, San Jose, Calif.). Cells were stained with annexin-V and 7-amino-actinomycin D (7-AAD) for 15 minutes according to the manufacturer's instructions (BD Pharmingen). Within 1 hour after staining, cells were analyzed by flow cytometry using CellQuest software (Becton Dickinson).

For series [3], the system named is iCasp9M.IRES.GFPhigh-transduced CTLs. Put plainly: SCID mouse-human xenograft model, elimination of transduced CTLs by CID. To be noted: single dose of CID (50 μg AP20187 i.p.), vs carrier. It counts as in vivo. Here is the method:
Non-obese diabetic severe combined immunodeficient (NOD/SCID) mice, 6 to 8 weeks of age, were irradiated (250 rad) and injected subcutaneously in the right flank with 10×10^6 to 15×10^6 LCLs resuspended in Matrigel (BD Bioscience). Two weeks later mice bearing tumors that were approximately 0.5 cm in diameter were injected into the tail vein with a 1:1 mixture of nontransduced and iCasp9.I.GFPhigh-transduced EBV CTLs (total 15×10^6). At 4 to 6 hours prior and 3 days after CTL infusion, mice were injected intraperitoneally with recombinant hIL-2 (2000 U; Proleukin; Chiron). On day 4, the mice were randomly segregated in 2 groups: 1 group received CID (50 μg AP20187, intraperitoneally) and 1 group received carrier only (16.7% propanediol, 22.5% PEG400, and 1.25% Tween 80, intraperitoneally). […] By FACS analysis, the number of GFP+ cells within the gated CD3^+ population was evaluated. […]
The function of iCasp9M in vivo is graphically illustrated in FIG. 7. […] On day 3 after CTL administration, mice received either CID (50 μg AP20187; (black diamonds, n=6) or carrier only (black squares, n=5) and on day 6 the presence of human CD3+/GFP+ T cells in the tumors was analyzed. Human CD3+ T cells isolated from the tumors of a control group of mice that received only nontransduced CTLs (15×10^6 CTLs; n=4) were used as a negative control for the analysis of CD3+/GFP+ T cells within the tumors.
A general note: A xenograft is tissue or cells of one species grown in another, often human tumour cells in immunodeficient mice.

Series [4] deals with iCasp9-ΔCD19-transduced MSCs. Description: In vivo killing of iCasp9-transduced MSCs in SCID mice (luminescence, qPCR). Set-up: species or system mouse. For orientation: In qPCR the cycle at which signal appears reflects the starting amount.
The test system of series [5] is iCasp9M-transduced EBV-CTLs. Put plainly: Loss of GFP-expressing iCasp9M-transduced EBV-CTLs after CID (flow cytometry). The series is classed as cell-based, human. (In general: In flow cytometry, cells or beads pass a laser one at a time.)
The subject of series [6] is gene-modified allodepleted cells. Description: Induction of apoptosis with AP20187 in gene-modified allodepleted cells (annexin V/7-AAD). The series is classed as cell-based, human. Here is the method: Suicide gene functionality was assessed by adding a small molecule synthetic homodimerizer, AP20187 (Ariad Pharmaceuticals; Cambridge, Mass.), at 10 nM final concentration the day following CD19 immunomagnetic selection. Cells were stained with annexin V and 7-aminoactinomycin (7-AAD)(BD Pharmingen) at 24 hours and analyzed by flow cytometry. Cells negative for both annexin V and 7-AAD were considered viable, cells that were annexin V positive were apoptotic, and cells that were both annexin V and 7-AAD positive were necrotic. The percentage killing induced by dimerization was corrected for baseline viability as follows: Percentage killing=100%−(% Viability in AP20187-treated cells÷ % Viability in non-treated cells).
Cells were maintained in T cell medium containing 50 U/ml IL-2 until 22 days after transduction. A portion of cells was reactivated on 24-well plates coated with […] OKT3 and 1 μg/ml anti-CD28 (Clone CD28.2, BD Pharmingen, San Jose, Calif.) for 48 to 72 hours. CD19 expression and suicide gene function in both reactivated and non-reactivated cells were measured on day 24 or 25 post transduction.
In some experiments, cells also were cultured for 3 weeks post transduction and stimulated with 30G-irradiated allogeneic PBMC at a responder:stimulator ratio of 1:1. After 4 days of co-culture, a portion of cells was treated with 10 nM AP20187. Killing was measured by annexin V/7-AAD staining at 24 hours, and the effect of dimerizer on bystander virus-specific T cells was assessed by pentamer analysis on AP20187-treated and untreated cells.

The test system of series [7] is Primary T cells from healthy donors.
[8] abbreviates: 10 nM, 24 hours, day after CD19 selection.

`CC[C@H](C(=O)N1CCCC[C@H]1C(=O)O[C@H](CCc1ccc(OC)c(OC)c1)c1cccc(OCC(=O)NCC(CNC(=O)COc2cccc([C@@H](CCc3ccc(OC)c(OC)c3)OC(=O)[C@@H]3CCCCN3C(=O)[C@@H](CC)c3cc(OC)c(OC)c(OC)c3)c2)CN(C)C)c1)c1cc(OC)c(OC)c(OC)c1` [AP20187]: the “annexin positive non-transduced control MSC (Control/CID)” value with iCasp9-transduced MSCs (CID 50 nM, 24 hours) came to 15%. In addition, the “apoptosis index of iCasp9-negative cells” value with iCasp9-transduced MSCs (CID 50 nM, 24 hrs, listed as CID) is 20±7% and 19%. Moreover, the “apoptotic death of iCasp9-positive cells” value with iCasp9-transduced MSCs (CID 50 nM, within 24 hrs) amounted to 93±1%. Also, in the series with iCasp9-transduced MSCs (after exposure to CID), the “apoptotic cells among magnetically immunoselected iCasp9-CD19-positive cells” value was “More than 95%”. The cell density in series [1] is listed as under 14 cells/mm2. In series [2], the “apoptotic (annexin-V+/7-AAD−) phenotype” value is recorded as 64%. Besides, in series [2] (listed as CID), the “necrotic (annexinV+/7-AAD+) phenotype” value is 30% and 32%. For the same molecule, the “reduction in the number of human CD3+/GFP+ T cells in tumors” value in series [3] (listed as CID) is over 99%; in series [3] (listed as dimerizer) it was “more than 99%”. Further, the “proportion of surviving iCasp9-positive cells” value in series [4] (mouse, in vivo) is recorded as 0.7%. Besides, the “killing / depletion of iCasp9-positive MSCs in vivo” value in series [4] (two injections of 50 μg of CID 24 hours apart) was over 99%. In addition, the “CID concentration sufficient to obtain the maximal deletion effect” value in series [5] (F-Casp9M.I.GFPhigh, day 7) was 1 nM. In series [5] (after CID), the “reduction in mean fluorescence intensity of GFP in surviving CTLs” value came out at 70%. Further, the “GFP+ cells eliminated” value in series [5] (unselected CTLs, single 10-nM dose of CID, 5 donors) turned out to be 91.3%. In addition, the “Killing efficiency after correction for baseline viability” value in series [6] (setting [8]) is listed as “about 92.9%±3.8%”. Also, in series [6] (setting [8]), the “viable cells after AP20187” value is “about 5.5%±2.5%”. The killing efficiency is ~84.6%±8.0% in series [6] (OKT3/aCD28-reactivated cells, day 24 or 25); 93.1±3.5% in series [6] (day 5 post transduction); 63.1±6.2% and ~63.1%±6.2% in series [6] (day 24 post transduction, non-reactivated). Besides, in series [6] (allostimulated cells, 10 nM AP20187), the “effect on virus-specific T cells (pentamer analysis)” value is given as “spares (and thereby enriches) viral reactive subpopulations”. In series [6] (day 24 post transduction, 10 nM AP20187), the residual viability came out at 19.6±5.6%. The values for the percentage killing result in series [6] (large scale (n=3)) and in series [6] (small scale (n=5)) were “about 95.4%” and “about 91.4%”, respectively. In addition, the “mean viability with AP20187” value in series [6] (large scale CD19 selection (n=3)) is recorded as “about 3.9%”; in series [6] (small scale CD19 selection (n=5)), “about 6.6%”. Moreover, the “viability of non-transduced cells with AP20187” value in series [6] (non-transduced cells (n=6)) is recorded as “about 86%±9%”. For the same molecule, in series [6] (reactivated, CD25 negative fraction), the Killing was determined as 78.6±9.1%. In series [6] (summary statement, listed as small-molecule dimerizer), the “apoptosis / elimination of iCasp9-modified T cells after dimerizer” value is over 90%.

B1: N405Qco: codon-optimized version of the modified caspase-9 polypeptide having the N405Q substitution, SEQ ID NO: 39/40 (protein)
chain: VDGFGDVGALESLRGNADLAYILSMEPCGHCLIINNVNFCRESGLRTRTGSNIDCEKLRRRFSSLHFMVEVKGDLTAKKMVLALLELARQDHGALDCCVVVILSHGCQASHLQFPGAVYGTDGCPVSVEKIVNIFNGTSCPSLGGKPKLFFIQACGGEQKDHGFEVASTSPEDESPGSNPEPDATPFQEGLRTFDQLDAISSLPTPSDIFVSYSTFPGFVSWRDPKSGSWYVETLDDIFEQWAHSEDLQSLLLRVANAVSVKGIYKQMPGCFQFLRKKLFFKTSASRA
On to B1, for which the “AP1903-dependent cytotoxicity / sensitivity in transduced T cells” value in series [7] is recorded as “very subtle effect on inducible caspase function”.
